Laboratory results taken from patent US11071737B2, “Drug inclusion complex, preparation thereof, and preparation method thereof” (priority 2015, dated 2021).

Assays:
[1] = Inclusion ability of different concentrations and kinds of cyclodextrins for encapsulating API
Experimental: Different kinds of cyclodextrins were dissolved with a pH 1.2 aqueous hydrochloric acid solution (0.1N) to determine the saturation concentration of each cyclodextrin.
(1) A certain amount of α-, β- and γ-cyclodextrin were weighed and added into a 10 mL volumetric flask, then added aqueous hydrochloric acid solution of pH 1.2 gradually until reaching the scale of the flask, shocked and performed ultrasound to dissolve the cyclodextrin. The maximum amount of cyclodextrin capable of being dissolved in a 10 mL solution was recorded.
(2) 8% α-cyclodextrin solution, 1% β-cyclodextrin solution, 20% γ-cyclodextrin solution, 20%, 30%, and 40% sulfobutyl ether-β-cyclodextrin solution and 20%, 30%, and 40% hydroxypropyl-β-cyclodextrin solution were formulated with hydrochloric acid aqueous solution of pH 1.2.
A certain amount of API was weighed and added into an appropriate volume of the cyclodextrin solution. If API was completely dissolved, the solution was filtered with a 0.45 μm PTFE filter membrane, and pH was slowly adjusted to 4.0 with a 5N NaOH aqueous solution and a 0.1N NaOH aqueous solution, observing during the pH adjusting procedure. If the solution becomes turbid when adjusting the pH, try to reduce the concentration of API. The clear solution after the pH adjustment was left to stand to observe the state of the solution after standing for 2 hours, 4 hours, and 24 hours.

[2] = Formulation of drug-containing HP-β-CD solutions (concentration by HPLC, observation on standing); details: 21 mg/ml added to 30% HP-β-CD solution pH 1.2, not completely dissolved, 0.45 μm PES filter
Experimental: The drug was dissolved completely by ultrasound (ultrasonic frequency was 59 kHz).
4. pH adjustment: The pH of the drug solution was adjusted to about 6.0 with 5N NaOH aqueous solution and 0.1 N NaOH aqueous solution.

O=C(Cc1ccc(-c2ccc(N3CCOCC3)cc2)cn1)NCc1cccc(F)c1.O=S(=O)(O)c1ccccc1 [KX2-361.benzene sulfonate]
Solution phenomenon when pH is adjusted to 4 ([1]; API 0.5 mg/ml in 20% γ-CD (174:1)): turbid | concentration after filtering, calibrated with HPLC [2]: 20660 µg/mL

OC[C@H]1O[C@@H]2O[C@H]3[C@H](O)[C@@H](O)[C@@H](O[C@H]4[C@H](O)[C@@H](O)[C@@H](O[C@H]5[C@H](O)[C@@H](O)[C@@H](O[C@H]6[C@H](O)[C@@H](O)[C@@H](O[C@H]7[C@H](O)[C@@H](O)[C@@H](O[C@H]1[C@H](O)[C@H]2O)O[C@@H]7CO)O[C@@H]6CO)O[C@@H]5CO)O[C@@H]4CO)O[C@@H]3CO [α-cyclodextrin]
maximum solubility in aqueous hydrochloric acid solution of pH 1.2 ([1]; % (w/v), 10 mL): about 8%

OC[C@H]1O[C@@H]2O[C@H]3[C@H](O)[C@@H](O)[C@@H](O[C@H]4[C@H](O)[C@@H](O)[C@@H](O[C@H]5[C@H](O)[C@@H](O)[C@@H](O[C@H]6[C@H](O)[C@@H](O)[C@@H](O[C@H]7[C@H](O)[C@@H](O)[C@@H](O[C@H]8[C@H](O)[C@@H](O)[C@@H](O[C@H]1[C@H](O)[C@H]2O)O[C@@H]8CO)O[C@@H]7CO)O[C@@H]6CO)O[C@@H]5CO)O[C@@H]4CO)O[C@@H]3CO [β-cyclodextrin]
maximum solubility in aqueous hydrochloric acid solution of pH 1.2 ([1]; pH 1.2): about 1%

OC[C@H]1O[C@@H]2O[C@H]3[C@H](O)[C@@H](O)[C@@H](O[C@H]4[C@H](O)[C@@H](O)[C@@H](O[C@H]5[C@H](O)[C@@H](O)[C@@H](O[C@H]6[C@H](O)[C@@H](O)[C@@H](O[C@H]7[C@H](O)[C@@H](O)[C@@H](O[C@H]8[C@H](O)[C@@H](O)[C@@H](O[C@H]9[C@H](O)[C@@H](O)[C@@H](O[C@H]1[C@H](O)[C@H]2O)O[C@@H]9CO)O[C@@H]8CO)O[C@@H]7CO)O[C@@H]6CO)O[C@@H]5CO)O[C@@H]4CO)O[C@@H]3CO [γ-cyclodextrin]
maximum solubility in aqueous hydrochloric acid solution of pH 1.2 ([1]; pH 1.2): about 20%
